Laboratory results published in patent US8623997B2, “Variant Hhip1 protein and methods and uses thereof” (Curis, Inc., priority 2008, dated 2014).
Bridge positions count the residues as written; N and C are the ends. Ends that are not written are not given here.

Key:
Shh = target: T1, Shh (Homo sapiens, UniProt Q15465); experiment: NMR HSQC spectroscopy of labeled Shh with L2 loop peptides; type: binding; settings: 2 mM of each peptide
T1 construct: yielding Shh (residues 29-197) lacking the His6-Tag; His6 (N, cleaved yes); made in house; host or cells: E. coli Rosetta 2, minimal/M9 medium with 15NH4Cl
From the text: Shh is in the same orientation as in the Hhip-Shh complex in Panel A. Zn^2+ and Ca^2+ cations are shown. […] Surface representation of Shh with residues within 4.5 Å of Hhip (shaded gray) and Cdon (hatched areas). Area within dotted boarder indicates the boundaries of the Cdon footprint, which overlaps the Hhip binding surface. […] Shh histidine residues are shown as sticks with nitrogen atoms shaded dark. The Hhip L2 loop is shown in transparent surface and Zn^2+ cation is shown. Histidine 35 is not shown since the ordered portion of the Shh structure begins at L40. […] The spectral region of the histidine side chains is shown. […] The average mean Shh649 fluorescence intensity (MFI) of two independent dilution series was plotted versus protein concentration, with error bars denoting standard deviations. Ctrl refers to the His-6 (SEQ ID NO: 87) tagged HGF β protein. […] Shh649 (0.33 nM) was preincubated with 56 nM (170-fold excess) of Hhipβ12 wildtype or L2 mutant proteins, 5E1 or controls then bound to Ptch1 cells (black) or 293 cells (gray), washed and analyzed by FACS. Shh649 binding to Ptch1 cells in the absence of inhibitors was normalized to 100% and the data expressed as a percentage of this signal (average of two independent duplicates with standard deviations). Ctrl and CtrlFc refer to HGF β and the IgG1 isotype control Trastuzumab, respectively. […]

Hh signaling = experiment: S12 Gli luciferase assay, activation of Hh signaling; type: cell-based, murine; settings: octylated Ihh wildtype and T154I proteins
Procedure: (§1) Shh649 (1 nM) preincubated with indicated proteins was bound to Ptch1 expressing cells, washed and analyzed by FACS. The average mean Shh649 fluorescence intensity (MFI) of two independent dilution series was plotted versus inhibitor concentration, with error bars denoting standard deviations. […] Assays were carried out using octylated Ihh wildtype and T154I proteins. Concentration dependent relative luciferase units (RLU) are plotted as the average of four independent dilution series±standard deviation and normalized to the maximal Ihh WT stimulation on each plate as 100%. […] The data is representative of three independent experiments.
Briefly, S12 cells, which are 10T1/2 fibroblasts stably transfected with 8× Gli-binding sites fused to a luciferase reporter (Frank-Kamenetsky et al. (2002) J. Biol. 1:10), were plated at 10,000 cells/well of a white-walled clear bottomed 96-well plate (Costar 3610) for 48 hrs in regular growth medium (HG-DMEM, 10% FBS, 1% glutamine). After 24 h, the media was removed and Shh-producing HT29 cells at 20,000 cells/well were plated and the co-culture was grown in regular media. […] Gli-luciferase activity was measured using a HTS-Steady Lite luciferase detection kit (Perkin Elmer); multiple assays were carried out, each in triplicate. […]

Ptch1 = experiment: FACS assay of Shh649 binding to Ptch1 expressing 293 cells and its competition; set-up: species or system human
Procedure: as §1
Shh is in the same orientation as in the Hhip-Shh complex in Panel A. Zn^2+ and Ca^2+ cations are shown. […] Surface representation of Shh with residues within 4.5 Å of Hhip (shaded gray) and Cdon (hatched areas). Area within dotted boarder indicates the boundaries of the Cdon footprint, which overlaps the Hhip binding surface. […] Shh histidine residues are shown as sticks with nitrogen atoms shaded dark. The Hhip L2 loop is shown in transparent surface and Zn^2+ cation is shown. Histidine 35 is not shown since the ordered portion of the Shh structure begins at L40. […] The spectral region of the histidine side chains is shown. […] The average mean Shh649 fluorescence intensity (MFI) of two independent dilution series was plotted versus protein concentration, with error bars denoting standard deviations. Ctrl refers to the His-6 (SEQ ID NO: 87) tagged HGF β protein. […] Shh649 (0.33 nM) was preincubated with 56 nM (170-fold excess) of Hhipβ12 wildtype or L2 mutant proteins, 5E1 or controls then bound to Ptch1 cells (black) or 293 cells (gray), washed and analyzed by FACS. Shh649 binding to Ptch1 cells in the absence of inhibitors was normalized to 100% and the data expressed as a percentage of this signal (average of two independent duplicates with standard deviations). Ctrl and CtrlFc refer to HGF β and the IgG1 isotype control Trastuzumab, respectively. The data is representative of at least three independent experiments.
Shh649, conjugated to Dylight 649 (Pierce) at its C-terminus (vide supra), was incubated at 0.33 or 1 nM for 1 h on ice with various Hhip or control proteins prior to incubation with HEK-293 cells (293) or 293 cells expressing full length human Patched-1 (Ptch1-293 clone 10) (Carpenter D. et al. (1998) Proc. Natl. Acad. Sci. USA 95:13630-13634) in FACS buffer (3% FBS in PBS) for 1 h on ice. After washing 3 times in FACS buffer, live cells (sorted by propidium iodide exclusion) were analyzed by flow cytometry in the APC channel using a FACSCalibur (BD Biosciences). Control proteins included His6-Shh, His6-Ihh, HGF β-His639, Trastuzumab (Genentech, Inc.) as a human IgG1 isotype control for Hhip1β12-Fc, and mIgG1 (Molecular Probes Z25105) as a murine Mab control for anti-Shh 5E1 Mab34.

T1 sequence (Q15465 29-197): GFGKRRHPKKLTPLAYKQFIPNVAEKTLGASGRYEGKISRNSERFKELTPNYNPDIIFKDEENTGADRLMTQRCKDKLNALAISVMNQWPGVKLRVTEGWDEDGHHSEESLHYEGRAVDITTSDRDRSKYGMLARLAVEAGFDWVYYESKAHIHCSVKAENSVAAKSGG

displacement of Ptch1 L2-like peptide from Shh by ^13C, ^1H-HSQC (Shh)	EC50 (Hh signaling) [nM]	Substance	competition of Shh649 binding to Ptch1 cells (in words) (Ptch1)
displaces Ptch1 L2-like peptide from Shh	–	GCGMITLDDMEEMDGLSDFCG (disulfide 2-20 (inferred); listed as Homo sapiens) [Hhip1β12 L2 peptide]	–
–	16	Ihh: human Indian Hedgehog, residues 29-202	dose dependent manner
–	330	T154I: type A1 brachydactyly mutant Ihh T154I	–
